Read-outs that look alike come from different tables or passages of the source. Numbered stars: 1 amine (or outer) side, 2 acyl side, 3 side chain; on linkers, the order of the positions; unused ones are H or OH. Bridge positions count the residues as written; N and C are the ends. Square brackets hold non-standard residues; d marks the D form. Side chains are listed from the residue outwards. Peptide text beside a SMILES is read from it. * marks the point of attachment. X14 = NC(=O)[C@H](CCCCNC(=O)CCCC[C@@H]1SC[C@@H]2NC(=O)N[C@@H]21)NC(=O)CCC(=O)NCCCOCCOCCOCCCNC(=O)CCC(=O)NCCCOCCOCCOCCCN*; X3 = O=C(O)CN1CCN(CC(=O)O)CCN(CC(=O)NCCCOCCOCCOCCCN*)CCN(CC(=O)O)CC1; DOTA = O=C(O)CN1CCN(CC(=O)O)CCN(CC(=O)*)CCN(CC(=O)O)CC1; Phe(4-Cl) = N[C@@H](Cc1ccc(Cl)cc1)C(=O)O; Dap(CONH2) = NC(=O)NC[C@H](N)C(=O)O; X1 = O=C(CC1CCN([*:1])CC1)[*:2]; Cit = NC(=O)NCCC[C@H](N)C(=O)O; Suc = O=C(CCC(=O)[*:2])[*:1]; Tle = CC(C)(C)[C@H](N)C(=O)O; Aib = CC(C)(N)C(=O)O
Tests used:
[1] = target: T1, Fc-fusion protein of human PSMA (hPSMA-Fc) (Homo sapiens, UniProt Q04609); test: Surface plasmon resonance assay (Biacore T200, single cycle kinetic); type: binding; conditions: read-out: pKD CAT (converted)
T1 construct: purchased Acro Biosystems PSA-H5264
Procedure, shortened: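 KD, expressed as pKD, came from 1:1 Langmuir fits of reference- and buffer-blank-subtracted SPR data. The runs were single-cycle kinetics at 25° C in HBST/0.1% DMSO over human PSMA-Fc, captured to ~1000 RU on a peptide-coated CM5 surface and regenerated with 10 mM glycine pH 1.5.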

[2] = target: T2, PSMA-expressing C4-2 cells (Homo sapiens, UniProt Q04609); test: FACS binding assay (competition with 50 nM PSM-0183); conditions: read-out: pIC50 [C4-2] CAT (converted)
T2 construct: PSMA-expressing C4-2 cells (ATCC, Cat. No. CRL-3314) were cultured in RPMI-1640; host or cells: C4-2 cells
Procedure, shortened: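 Competition format: fluorescent tracer PSM-0183 (50 nM) displaced from PSMA on C4-2 cells by a test compound titration over 1 h at 4 °C. Bound tracer was quantified as flow-cytometric AF488 median fluorescence after washing. Four-parameter logistic fits of MFI data gave IC50 and pIC50.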

[3] = SPR, hPSMA-Fc, single cycle kinetic, 25° C., category
[4] = FACS binding, C4-2 cells, competition with 50 nM PSM-0183, category
[5] = pKD category for PSMA SPR activity assay, hPSMA-Fc, 25° C.
[6] = pIC50 category of FACS binding, C4-2 cells

T2 sequence (Q04609 whole entry): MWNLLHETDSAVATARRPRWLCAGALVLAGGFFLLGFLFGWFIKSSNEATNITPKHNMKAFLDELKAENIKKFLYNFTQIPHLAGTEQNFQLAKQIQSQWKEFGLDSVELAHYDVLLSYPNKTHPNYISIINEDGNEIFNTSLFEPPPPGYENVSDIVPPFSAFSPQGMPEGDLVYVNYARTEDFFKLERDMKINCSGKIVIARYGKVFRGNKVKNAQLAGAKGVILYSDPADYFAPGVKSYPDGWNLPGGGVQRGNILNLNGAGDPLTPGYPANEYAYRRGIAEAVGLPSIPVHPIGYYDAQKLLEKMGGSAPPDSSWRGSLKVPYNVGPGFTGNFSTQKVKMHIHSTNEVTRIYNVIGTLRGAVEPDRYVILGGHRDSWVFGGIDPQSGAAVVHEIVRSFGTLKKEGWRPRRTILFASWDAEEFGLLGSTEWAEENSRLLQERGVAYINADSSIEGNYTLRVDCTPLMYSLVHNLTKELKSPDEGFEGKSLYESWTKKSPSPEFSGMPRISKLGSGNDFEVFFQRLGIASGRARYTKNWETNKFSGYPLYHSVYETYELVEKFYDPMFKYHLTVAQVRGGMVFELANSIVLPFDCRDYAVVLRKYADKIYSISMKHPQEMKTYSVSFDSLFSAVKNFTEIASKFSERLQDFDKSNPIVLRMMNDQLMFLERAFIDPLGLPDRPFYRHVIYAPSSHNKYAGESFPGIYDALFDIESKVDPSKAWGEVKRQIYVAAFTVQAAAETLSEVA
T1 sequence (Q04609 44-750 limits assumed): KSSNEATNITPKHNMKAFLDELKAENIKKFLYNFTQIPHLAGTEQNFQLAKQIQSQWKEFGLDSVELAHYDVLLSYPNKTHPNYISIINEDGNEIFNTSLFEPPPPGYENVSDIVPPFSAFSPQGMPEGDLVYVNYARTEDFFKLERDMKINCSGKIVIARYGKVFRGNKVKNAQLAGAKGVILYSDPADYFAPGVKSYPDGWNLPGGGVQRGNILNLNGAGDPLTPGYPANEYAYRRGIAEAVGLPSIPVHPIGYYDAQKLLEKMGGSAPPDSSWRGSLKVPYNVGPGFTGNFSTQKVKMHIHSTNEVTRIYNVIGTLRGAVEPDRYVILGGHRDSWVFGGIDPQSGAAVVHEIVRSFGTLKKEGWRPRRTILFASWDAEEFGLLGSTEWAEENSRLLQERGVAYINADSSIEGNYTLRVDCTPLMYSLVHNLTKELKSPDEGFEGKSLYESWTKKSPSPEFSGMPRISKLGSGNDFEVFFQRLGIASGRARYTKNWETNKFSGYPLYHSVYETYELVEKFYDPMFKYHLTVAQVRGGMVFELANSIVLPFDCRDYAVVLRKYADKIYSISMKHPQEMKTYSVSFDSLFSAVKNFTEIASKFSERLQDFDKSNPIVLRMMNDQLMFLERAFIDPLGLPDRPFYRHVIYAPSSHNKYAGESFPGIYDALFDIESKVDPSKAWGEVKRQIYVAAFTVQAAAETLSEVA

Row | SMILES | Kd [1, 3] [nM] | IC50 [2, 4] [nM] | Kd [1, 5] [nM] | IC50 [2, 6] [nM] | also measured
1 | CC(=O)N[C@H](C(=O)NC(C)(C)C(=O)N[C@@H](Cc1ccccc1)C(=O)N[C@H]1CSSC[C@@H](C(=O)N[C@H](C(=O)N[C@H](C(=O)N[C@@H](CC(=O)O)C(N)=O)[C@@H](C)O)C(C)(C)C)NC(=O)[C@H](CC(N)=O)NC(=O)[C@H](C)NC(=O)[C@H](CNC(N)=O)NC(=O)[C@H](CCCCN)NC1=O)[C@@H](C)O [PSM-0180, Ac-Thr-Aib-Phe-[Cys-Lys-Gln-Ala-Asn-Cys]-Tle-Thr-Asp-NH2] (Ac-T[Aib]FCK[Dap(CONH2)]ANC[Tle]TD-NH2; disulfide 4-9) | 12.6 to 126 | < 200 |  |  | 
2 | CC(=O)N[C@H](C(=O)NC(C)(C)C(=O)N[C@@H](Cc1ccccc1)C(=O)N[C@H]1CSSC[C@@H](C(=O)N[C@H](C(=O)N[C@H](C(N)=O)[C@@H](C)O)C(C)(C)C)NC(=O)[C@H](CC(N)=O)NC(=O)[C@H](CCCCNC(=O)CCC(=O)NCCCOCCOCCOCCCNC(=O)CN2CCN(CC(=O)O)CCN(CC(=O)O)CCN(CC(=O)O)CC2)NC(=O)[C@H](CCCNC(=N)N)NC(=O)[C@H](CCCCN)NC1=O)[C@@H](C)O [PSM-0465, Ac-Thr-Aib-Phe-[Cys-Lys-Arg-Lys(DOTA-Ttds)-Asn-Cys]-Tle-Thr-NH2] (Ac-T[Aib]FCKRK([Suc-X3])NC[Tle]T-NH2; disulfide 4-9) |  |  | < 12.6 | < 200 | 
3 | CC(=O)N[C@H](C(=O)NC(C)(C)C(=O)N[C@@H](Cc1ccccc1)C(=O)N[C@H]1CSSC[C@@H](C(=O)N[C@H](C(=O)N[C@H](C(=O)N[C@@H](CC(=O)O)C(N)=O)[C@@H](C)O)C(C)(C)C)NC(=O)[C@H](CC(N)=O)NC(=O)C(C)(C)NC(=O)[C@H](CCCNC(N)=O)NC(=O)[C@H](CCCCN)NC1=O)[C@@H](C)O [PSM-0280, Ac-Thr-Aib-Phe-[Cys-Lys-Cit-Aib-Asn-Cys]-Tle-Thr-Asp-NH2] (Ac-T[Aib]FCK[Cit][Aib]NC[Tle]TD-NH2; disulfide 4-9) |  |  |  |  | Kd ([1]; PSMA SPR assay, hPSMA-Fc, 25° C., pKD category): < 12.6 nM; IC50 ([2]; FACS binding, PSMA-expressing C4-2 cells, pIC50 category): < 200 nM
4 | CC(=O)N[C@H](C(=O)NC(C)(C)C(=O)N[C@@H](Cc1ccccc1)C(=O)N[C@H]1CSSC[C@@H](C(=O)N[C@H](C(=O)N[C@H](C(N)=O)[C@@H](C)O)C(C)(C)C)NC(=O)[C@H](CCC(=O)O)NC(=O)C(C)(C)NC(=O)[C@H](CCCNC(=N)N)NC(=O)[C@H](CCCCN)NC1=O)[C@@H](C)O [PSM-0563, Ac-Thr-Aib-Phe-[Cys-Lys-Arg-Aib-Glu-Cys]-Tle-Thr-NH2] (Ac-T[Aib]FCKR[Aib]EC[Tle]T-NH2; disulfide 4-9) |  |  |  |  | Kd ([1]; PSMA SPR assay, category): 12.6 to 126 nM; IC50 ([2]; FACS binding, C4-2 cells, category): < 200 nM
5 | CC(=O)N[C@H](C(=O)NC(C)(C)C(=O)N[C@@H](Cc1ccccc1)C(=O)N[C@H]1CSSC[C@@H](C(=O)N[C@H](C(=O)N[C@H](C(N)=O)[C@@H](C)O)C(C)(C)C)NC(=O)[C@H](CC(N)=O)NC(=O)[C@H](CCCCNC(=O)CN2CCN(CC(=O)O)CCN(CC(=O)O)CCN(CC(=O)O)CC2)NC(=O)[C@H](CCC(N)=O)NC(=O)[C@H](CCCCN)NC1=O)[C@@H](C)O [PSM-0385, Ac-Thr-Aib-Pho-[Cys-Lys-Gln-Lys(DOTA)-Asn-Cys]-Tle-Thr-NH2] (Ac-T[Aib]FCKQK(DOTA)NC[Tle]T-NH2; disulfide 4-9) |  |  | 126 to 501 | 200 to 1260 | 
6 | C[C@@H](O)[C@H](NC(=O)CC1CCN(C(=O)CN2CCN(CC(=O)O)CCN(CC(=O)O)CCN(CC(=O)O)CC2)CC1)C(=O)NC(C)(C)C(=O)N[C@@H](Cc1ccc(Cl)cc1)C(=O)N[C@H]1CSSC[C@@H](C(=O)N[C@H](C(=O)N[C@H](C(=O)NCCCOCCOCCOCCCNC(=O)CCC(=O)NCCCOCCOCCOCCCNC(=O)CCC(=O)N[C@@H](CCCCNC(=O)CCCC[C@@H]2SC[C@@H]3NC(=O)N[C@@H]32)C(N)=O)[C@@H](C)O)C(C)(C)C)NC(=O)[C@H](CC(N)=O)NC(=O)C(C)(C)NC(=O)[C@H](CCCNC(=N)N)NC(=O)[C@H](CCCCN)NC1=O [PSM-0250, DOTA-Cmp-Thr-Aib-Pcf-[Cys-Lys-Arg-Aib-Asn-Cys]-Tle-Thr-Ttds-Ttds-Lys(Bio)-NH2] ({DOTA}-[X1]T[Aib][Phe(4-Cl)]CKR[Aib]NC[Tle]T-X14; disulfide 5-10) | < 12.6 | 200 to 1260 |  |  | 

— patent publication US20260083865A1, “PROSTATE SPECIFIC MEMBRANE ANTIGEN (PSMA) LIGANDS AND USE THEREOF” (priority 2022, published 2026)
